The text below walks through data of patent US7160887B1, “Aromatic amine derivatives, their production and use” (Takeda Pharmaceutical Company Limited, priority 1998, dated 2007).

Structures can show the parent of a compound that is named as a salt.

One may read the melting point as the temperature, or range, at which the solid turns liquid. `NCCc1cccc(Oc2cc(Cl)ccc2N(Cc2ccc(-c3ccccc3)cc2)C(=O)CCC(=O)NCc2ccccc2F)c1` (as salt: hydrochloride) [Example 14, N-[2-[3-(2-aminoethyl)phenoxy]-4-chlorophenyl]-N-(4-biphenylmethyl)-N′-(2-fluorobenzyl)succinamide hydrochloride]: the melting point was 123 to 125 °C.
